Like-named read-outs stand apart in the source and are kept apart here.

For one test, the target named is PRMT5/MEP50 (Homo sapiens (Human), UniProt O14744). The test is described as follows: PRMT5 Biochemical Assay (PRMT5/MEP50 enzyme assay on peptide substrate, 3H-SAM Flashplate). In short, it runs like this:
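Radiometric methylation of a biotin-tagged H4(1-15) peptide by human PRMT5/MEP50 from baculovirus/Sf9, with ³H-SAM incorporation read on streptavidin Flashplates. Buffer: Bicine pH 7.6, TCEP, BSG, Tween20; compound preincubated 30 min at 25 °C; stopped with 600 µM final unlabeled SAM. DMSO and SAH controls; IC50 from fitted % inhibition.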

The test system of the next test is Z-138 cell line. The test is described as follows: Z-138 Proliferation Assay (Cell Titer Glo, 5 days). The format is cell-based. Conditions: Homo sapiens, 120 h, Z-138 cells, 5 days, read-out: Proliferation EC50. In short, it runs like this: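 Z-138 cells exposed 5 days at 37 °C, 5% CO2 to nine-point 3-fold dilutions (final top 20 μM, 0.2% DMSO), in triplicate. Viability read as ATP by CellTiter-Glo luminescence; IC50 from 4-parameter fit of normalized dose-response curves.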

Test [1] has as its system symmetric di-methyl arginine in Z-138 cells. Put plainly: Z-138 Methylation Assay (In Cell Western for symmetric di-methyl arginine and DNA content). To be noted: Homo sapiens, read-out: ICW EC50. The format is cell-based. In short, it runs like this: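 Z-138 cells (50,000 cells/mL) treated with compound 96 h at 37 °C, then fixed and stained for symmetric di-methyl arginine (800 nm) with DRAQ5 DNA counterstain (700 nm) on Licor Odyssey.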

Sequence of PRMT5/MEP50 (O14744 other isoform, or with tags, fused parts or gaps): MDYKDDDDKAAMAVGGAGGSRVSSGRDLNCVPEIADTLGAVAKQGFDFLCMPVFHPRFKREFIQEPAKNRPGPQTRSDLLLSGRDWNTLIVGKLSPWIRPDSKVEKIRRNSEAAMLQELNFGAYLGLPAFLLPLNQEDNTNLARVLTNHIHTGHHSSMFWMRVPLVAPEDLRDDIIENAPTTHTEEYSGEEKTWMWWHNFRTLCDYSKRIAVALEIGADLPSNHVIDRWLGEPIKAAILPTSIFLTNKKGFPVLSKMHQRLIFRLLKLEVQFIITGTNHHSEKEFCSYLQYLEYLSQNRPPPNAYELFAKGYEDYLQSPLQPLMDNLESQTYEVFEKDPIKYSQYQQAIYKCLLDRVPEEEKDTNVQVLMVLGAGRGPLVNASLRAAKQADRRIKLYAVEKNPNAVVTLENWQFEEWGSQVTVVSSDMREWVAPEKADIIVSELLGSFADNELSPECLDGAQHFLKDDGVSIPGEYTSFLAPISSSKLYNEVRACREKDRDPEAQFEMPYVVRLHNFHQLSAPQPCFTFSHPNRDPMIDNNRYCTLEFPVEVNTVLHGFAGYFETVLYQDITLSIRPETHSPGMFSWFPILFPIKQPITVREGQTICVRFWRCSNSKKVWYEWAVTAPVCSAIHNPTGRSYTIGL
Sequence of PRMT5/MEP50 (Q9BQA1 other isoform, or with tags, fused parts or gaps partner): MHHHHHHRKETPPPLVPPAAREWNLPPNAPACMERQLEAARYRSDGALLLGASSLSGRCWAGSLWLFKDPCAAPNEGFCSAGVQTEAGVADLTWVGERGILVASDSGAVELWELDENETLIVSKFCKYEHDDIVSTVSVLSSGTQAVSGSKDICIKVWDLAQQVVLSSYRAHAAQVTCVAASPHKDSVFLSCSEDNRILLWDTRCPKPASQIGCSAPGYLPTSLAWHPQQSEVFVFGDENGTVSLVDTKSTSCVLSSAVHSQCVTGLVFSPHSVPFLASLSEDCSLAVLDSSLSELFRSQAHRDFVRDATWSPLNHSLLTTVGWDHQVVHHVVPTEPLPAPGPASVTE

In the case of `CC(=O)N1CC[C@@H](Nc2cc(C(=O)NC[C@H](O)CN3CCc4ccccc4C3)ncn2)C1` [Compound 642], the IC50 on PRMT5/MEP50 (PRMT5 biochemical assay) was less than 100 nM. Moreover, the EC50 in the test with Z-138 cell line (Cell Titer Glo) is 101 to 1000 nM; in test [1] (In Cell Western methylation), less than 100 nM.
With `COC(CNC(=O)c1cc(NC2COC2)ncn1)CN1CCc2ccccc2C1` (stereo not drawn) [Compound 523], the IC50 at PRMT5/MEP50 (PRMT5 biochemical assay) was 1000 to 10000 nM. The EC50 in the test on Z-138 cell line (Cell Titer Glo) was greater than 5000 nM; in test [1] (In Cell Western methylation), greater than 1000 nM.
The corresponding values for `CC(=O)N1CCC(Nc2cc(C(=O)NC[C@H](O)CN3CCc4ccccc4C3)cc(OCCN(C)C)n2)CC1` [Compound 628] are less than 100 nM, less than 100 nM and less than 100 nM.
For the compound `CC(=O)N1CC(Nc2cc(C(=O)NCC(F)CN3CCc4ccccc4C3)ncn2)C1` (stereo not drawn) [Compound 655], on PRMT5/MEP50 (PRMT5 biochemical assay), the IC50 was in the range of 101 to 1000 nM. Moreover, the EC50 was greater than 5000 nM with Z-138 cell line (Cell Titer Glo) and 101 to 1000 nM in test [1] (In Cell Western methylation).
`COC(CNC(=O)c1ccnc(NC2CCN(C(C)=O)CC2)c1)CN1CCc2ccccc2C1` (stereo not drawn) [Compound 691]: the IC50 on PRMT5/MEP50 (PRMT5 biochemical assay) was less than 100 nM. Besides, the EC50 was 1000 to 10000 nM in the test on Z-138 cell line (Cell Titer Glo) and less than 100 nM in test [1] (In Cell Western methylation).
Regarding `N[C@H]1CC[C@@H](Nc2cc(C(=O)NC[C@H](O)CN3CCc4ccccc4C3)ncn2)CC1` [Compound 591], the IC50 on PRMT5/MEP50 (PRMT5 biochemical assay) was less than 100 nM. For the same compound, the EC50 was 1000 to 10000 nM in the test with Z-138 cell line (Cell Titer Glo) and less than 100 nM in test [1] (In Cell Western methylation).
With `O=C(NC[C@H](O)CN1CCc2ccccc2C1)c1cc(N[C@H]2C[C@H](C(=O)N3CCC3)C2)ncn1` [Compound 509], the concentration for half-maximal inhibition (IC50) at PRMT5/MEP50 (PRMT5 biochemical assay) is less than 100 nM. The EC50 (with Z-138 cell line (Cell Titer Glo); in test [1] (In Cell Western methylation)) was less than 100 nM throughout.
Take `CC1(C)c2ccccc2CCN1C[C@@H](O)CNC(=O)c1cc(NC2COC2)ncn1` [Compound 588]: the IC50 at PRMT5/MEP50 (PRMT5 biochemical assay) fell in the range of 1000 to 10000 nM. Further, the EC50 in the test with Z-138 cell line (Cell Titer Glo) is greater than 5000 nM; in test [1] (In Cell Western methylation), greater than 1000 nM.
Regarding `CN(C)C(=O)CN1CCC(Nc2cc(C(=O)NC[C@H](O)CN3CCc4ccccc4C3)ncn2)CC1` [Compound 567], at PRMT5/MEP50 (PRMT5 biochemical assay), the IC50 is less than 100 nM. Besides, the EC50 was 101 to 1000 nM in the test on Z-138 cell line (Cell Titer Glo) and less than 100 nM in test [1] (In Cell Western methylation).
Regarding `O=C(NCC(O)CN1CCc2ccccc2C1)c1ccccc1-c1ccccn1` (stereo not drawn) [Compound 12, N-(3-(3,4-dihydroisoquinolin-2(1H)-yl)-2-hydroxypropyl)-2-(pyridin-2-yl)benzamide], the IC50 at PRMT5/MEP50 is 101 to 1000 nM. In addition, the EC50 with Z-138 cell line is greater than 20000 nM; in test [1], 1000 to 10000 nM.
For `O=C(NC[C@H](O)CN1CCc2ccccc2C1)c1cc(NC2COC2)nc(N2CCCC2)n1` [Compound 451], the IC50 on PRMT5/MEP50 (PRMT5 biochemical assay) is less than 100 nM. The EC50 was 101 to 1000 nM in the test with Z-138 cell line (Cell Titer Glo) and less than 100 nM in test [1] (In Cell Western methylation).
Turning to `CC(=O)N[C@H]1CC[C@H](Nc2cc(C(=O)NC[C@H](O)CN3CCc4ccccc4C3)ncn2)CC1` [Compound 594], at PRMT5/MEP50 (PRMT5 biochemical assay), the IC50 is less than 100 nM. For the same compound, the results for the EC50 (in the test on Z-138 cell line (Cell Titer Glo); in test [1] (In Cell Western methylation)) were 101 to 1000 nM and less than 100 nM, respectively.
Regarding `CC(=O)N1CC[C@H](Nc2cc(C(=O)NC[C@H](O)CN3CCc4ccccc4C3)ncn2)C1` [Compound 582], the IC50 at PRMT5/MEP50 (PRMT5 biochemical assay) was less than 100 nM. The EC50 in the test on Z-138 cell line (Cell Titer Glo) was 1000 to 10000 nM; in test [1] (In Cell Western methylation), less than 100 nM.
As for `O=C(NC[C@H](O)CN1CCc2ccccc2C1)c1ccnc(Nc2cccnc2)c1` [Compound 343], the IC50 on PRMT5/MEP50 was less than 100 nM. In addition, the EC50 (with Z-138 cell line; in test [1]) was less than 100 nM throughout.
Regarding `O=C(NC[C@H](O)CN1CCc2ccccc2C1)C1=CC2=NC(CO)CN2C=N1` (stereo partly drawn) [Compound 473], at PRMT5/MEP50 (PRMT5 biochemical assay), the IC50 fell in the range of 101 to 1000 nM. Besides, the EC50 with Z-138 cell line (Cell Titer Glo) was greater than 20000 nM; in test [1] (In Cell Western methylation), greater than 1000 nM.
In the case of `O=C(NC[C@H](O)CN1CCc2ccccc2C1)c1ncnc(NC2COC2)c1F` [Compound 422], the IC50 on PRMT5/MEP50 (PRMT5 biochemical assay) was less than 100 nM. For the same compound, the EC50 in the test on Z-138 cell line (Cell Titer Glo) is 1000 to 10000 nM; in test [1] (In Cell Western methylation), less than 100 nM.
Turning to `CC(=O)[C@H]1CC[C@@H](Nc2cc(C(=O)NC[C@H](O)CN3CCc4ccccc4C3)ncn2)CC1` [Compound 615], on PRMT5/MEP50 (PRMT5 biochemical assay), the IC50 is less than 100 nM. Also, the EC50 (with Z-138 cell line (Cell Titer Glo); in test [1] (In Cell Western methylation)) was less than 100 nM each time.
For `CC(NC(=O)c1cc(NC2CCN(C)CC2)ncn1)C(O)CN1CCc2ccccc2C1` (stereo not drawn) [Compound 535], the IC50 on PRMT5/MEP50 (PRMT5 biochemical assay) fell in the range of 101 to 1000 nM. The values for the EC50 (in the test with Z-138 cell line (Cell Titer Glo); in test [1] (In Cell Western methylation)) were greater than 5000 nM and 101 to 1000 nM, respectively.
With `COCCN1CC(Nc2ccnc(C(=O)NC[C@H](O)CN3CCc4ccccc4C3)c2)C1` [Compound 576], the IC50 at PRMT5/MEP50 (PRMT5 biochemical assay) was less than 100 nM. Moreover, the values for the EC50 (in the test on Z-138 cell line (Cell Titer Glo); in test [1] (In Cell Western methylation)) were 1000 to 10000 nM and less than 100 nM, respectively.
In the case of `O=C(NC[C@H](O)CN1CCc2ccccc2C1)c1cc(NC2CN(C(=O)C3CCC3)C2)ccn1` [Compound 577], the IC50 on PRMT5/MEP50 (PRMT5 biochemical assay) was less than 100 nM. In addition, the EC50 (in the test on Z-138 cell line (Cell Titer Glo); in test [1] (In Cell Western methylation)) was less than 100 nM throughout.
On to `O=C(NC[C@H](O)CN1CCc2ccccc2C1)c1cc(NC2COC2)nc(N2CCNCC2)n1` [Compound 461], for which, on PRMT5/MEP50 (PRMT5 biochemical assay), the IC50 was less than 100 nM. The EC50 (in the test with Z-138 cell line (Cell Titer Glo); in test [1] (In Cell Western methylation)) was less than 100 nM throughout.
In the case of `Cc1cnc(NC2CN(CC(F)(F)F)C2)cc1C(=O)NC[C@H](O)CN1CCc2ccccc2C1` [Compound 356], the IC50 at PRMT5/MEP50 was in the range of 101 to 1000 nM. Further, the EC50 in the test on Z-138 cell line is greater than 20000 nM; in test [1] it was greater than 1000 nM.
As for `CC(=O)N1CCN(c2cc(C(=O)NC[C@H](O)CN3CCc4ccccc4C3)cc(NC3CCC3)n2)CC1` [Compound 398], on PRMT5/MEP50 (PRMT5 biochemical assay), the IC50 is less than 100 nM. The EC50 (in the test with Z-138 cell line (Cell Titer Glo); in test [1] (In Cell Western methylation)) was less than 100 nM in each case.
Consider `COC(CNC(=O)c1cc(NC2CCN(C)CC2)ncn1)CN1CCc2ccccc2C1` (stereo not drawn) [Compound 540], for which the IC50 on PRMT5/MEP50 (PRMT5 biochemical assay) was 1000 to 10000 nM. Further, the EC50 in the test on Z-138 cell line (Cell Titer Glo) was greater than 5000 nM; in test [1] (In Cell Western methylation), greater than 1000 nM.
With `O=C(NC[C@H](O)CN1CCc2ccccc2C1)c1cc(NC2CNC2)nc(N2CCNCC2)n1` [Compound 453], on PRMT5/MEP50 (PRMT5 biochemical assay), the IC50 was less than 100 nM. Moreover, the EC50 in the test on Z-138 cell line (Cell Titer Glo) is greater than 20000 nM; in test [1] (In Cell Western methylation), greater than 1000 nM.
As for `Cc1cnc(OC2CCOCC2)cc1C(=O)NC[C@H](O)CN1CCc2ccccc2C1` [Compound 309], the IC50 at PRMT5/MEP50 was less than 100 nM. Also, the EC50 in the test with Z-138 cell line was 1000 to 10000 nM; in test [1] it was less than 100 nM.
In the case of `CC(=O)N1CC(Nc2cc(C(=O)NCC(O)C(C)N3CCc4ccccc4C3)ncn2)C1` (stereo not drawn) [Compound 608], the IC50 at PRMT5/MEP50 (PRMT5 biochemical assay) lay in the range of 101 to 1000 nM. For the same compound, the EC50 with Z-138 cell line (Cell Titer Glo) was greater than 5000 nM; in test [1] (In Cell Western methylation), greater than 1000 nM.
On the same counts, the results for `O=C(NC[C@H](O)CN1CCc2ccccc2C1)c1cc(N[C@H]2CC[C@@H](C(=O)N3CCOCC3)CC2)ncn1` [Compound 599] are less than 100 nM, 1000 to 10000 nM and less than 100 nM.
`CC(C)N1CCN(c2cc(C(=O)NC[C@H](O)CN3CCc4ccccc4C3)cc(NC3CCC3)n2)CC1` [Compound 397]: at PRMT5/MEP50, the IC50 was less than 100 nM. Moreover, the EC50 (in the test on Z-138 cell line; in test [1]) was less than 100 nM each time.
As for `COC(CNC(=O)c1cc(NC2CCNCC2)ncn1)CN1CCc2ccccc2C1` (stereo not drawn) [Compound 538], the IC50 on PRMT5/MEP50 (PRMT5 biochemical assay) was 1000 to 10000 nM. Besides, the figures for the EC50 (in the test on Z-138 cell line (Cell Titer Glo); in test [1] (In Cell Western methylation)) were greater than 5000 nM and greater than 1000 nM, respectively.
Consider `CCNCCCOc1ccc(C(=O)NC[C@H](O)CN2CCc3ccccc3C2)cc1` [Compound 396], for which the IC50 on PRMT5/MEP50 is less than 100 nM. The EC50 in the test on Z-138 cell line was 1000 to 10000 nM; in test [1] it was less than 100 nM.
Regarding `CC(=O)N(C)[C@H]1CC[C@@H](Nc2cc(C(=O)NC[C@H](O)CN3CCc4ccccc4C3)ncn2)CC1` [Compound 632], the IC50 on PRMT5/MEP50 (PRMT5 biochemical assay) was less than 100 nM. Also, the EC50 is 101 to 1000 nM in the test on Z-138 cell line (Cell Titer Glo) and less than 100 nM in test [1] (In Cell Western methylation).

(Values after patent US10307413B2, “Tetrahydro- and dihydro-isoquinoline PRMT5 inhibitors and uses thereof” (Epizyme, Inc., priority 2013, dated 2019).)
